System: hiPSC clone FTi111
Assay: Post-thaw recovery of hiPSC clone in various culture environments
Type: cell-based, human
Details: conventional culture with feeder cells

For O=C(NCc1ccccc1)c1csc(Nc2ccncn2)n1 [Thiazovivin], which “recovery of hiPSC colonies after thaw” value is on record?
The value was “only recovered in the presence of Thiazovivin”.
